Literature values, collected in patent US20070148205A1, “Prevention of Arterial Restenosis with Active Vitamin D Compounds” (priority 2004, published 2007).

Details: in vivo

## C=C1/C(=C\C=C2/CCC[C@]3(C)C([C@H](C)CC#CC(C)(C)O)=CC[C@@H]23)C[C@@H](O)C[C@@H]1O [Ro23-7553]
  Hypercalcemic effect compared to calcitriol, in words: reduced hypercalcemic effect
